These results are taken from US20060100431A1, “Biologically active compounds” (Amura Therapeutics Limited, priority 2002, published 2006).

Each structure is given as a SMILES string.

One assay has as its target T1, CPB2.8ΔCTE (Leishmania mexicana, UniProt P36400).
T1 construct: Wild-type recombinant CPB without the C-terminal extention (i.e. CPB2.8ΔCTE); Dr. Jeremy Mottram (Wellcome Centre for Molecular Parasitology, University of Glasgow)
Kind of assay: Leishmania mexicana cysteine protease B (CPB) peptidase activity assay (Ki). It counts as biochemical. The note with it: Ki, inhibitors of Leismania mexicana CPB protease. The procedure: Unless otherwise stated, all general chemicals and biochemicals were purchased from either the Sigma Chemical Company, Poole, Dorset, U.K or from Fisher Scientific UK, Loughborough, Leicestershire, U.K. Absorbance assays were carried out in flat-bottomed 96-well plates (Spectra; Greiner Bio-One Ltd., Stonehouse, Gloucestershire, U.K.) using a SpectraMax PLUS384 plate reader (Molecular Devices, Crawley, U.K.). Fluorescence high throughput assays were carried out in either 384-well microtitre plates (Corning Costar 3705 plates, Fisher Scientific) or 96-well ‘U’ bottomed Microfluor W1 microtitre plates (Thermo Labsystems, Ashford, Middlesex, U.K.). Fluorescence assays were monitored using a SpectraMax Gemini fluorescence plate reader (Molecular Devices). For substrates employing either a 7-amino-4-methylcoumarin (AMC) or a 7-amino-4-trifluoromethylcoumarin (AFC) fluorophore, assays were monitored at an excitation wavelength of 365 nm and an emission wavelength of 450 nm and the fluorescence plate reader calibrated with AMC. For substrates employing a 3-amino-benzoyl (Abz) fluorophore, assays were monitored at an excitation wavelength of 310 nm and an emission wavelength of 445 nm; the fluorescence plate reader calibrated with 3-amino-benzamide (Fluka). Unless otherwise indicated, all the peptidase substrates were purchased from Bachem UK, St Helens, Merseyside, UK. Substrates utilizing fluorescence resonance energy transfer methodology (i.e. FRET-based substrates) were synthesized at Incenta Limited using published methods (Atherton & Sheppard, Solid Phase Peptide Synthesis, IRL Press, Oxford, U.K, 1989) and employed Abz (2-aminobenzoyl) as the fluorescence donor and 3-nitro-tyrosine [Tyr(NO2)] as the fluorescence quencher (Meldal, M. and Breddam, K., Anal. Biochem, 195, 141-147, 1991). Hydroxyethylpiperazine ethanesulfonate (HEPES), tris-hydroxylmethyl aminomethane (tris) base, bis-tris-propane and all the biological detergents (e.g. CHAPS, zwittergents, etc.) were purchased from CN Biosciences UK, Beeston, Nottinghamshire, U.K. Glycerol was purchased from Amersham Pharmacia Biotech, Little Chalfont, Buckinghamshire, U.K. Stock solutions of substrate or inhibitor were made up to 10 mM in 100% dimethylsulfoxide (DMSO) (Rathburns, Glasgow, U.K.) and diluted as appropriately required. In all cases the DMSO concentration in the assays was maintained at less than 1% (vol./vol.).
Assay protocols were based on literature precedent (Table 4; Barrett, A. J., Rawlings, N. D. and Woessner, J. F., 1998, Handbook of Proteolytic Enzymes, Academic Press, London and references therein) and modified as required to suit local assay protocols. Enzyme was added as required to initiate the reaction and the activity, as judged by the change in fluorescence upon conversion of substrate to product, was monitored over time. All assays were carried out at 25±1° C.
Wild-type recombinant CPB without the C-terminal extention (i.e. CPB2.8ΔCTE; Sanderson, S. J., et. al., Biochem. J., 347, 383-388, 2000) was obtained from Dr. Jeremy Mottram (Wellcome Centre for Molecular Parasitology, The Anderson College, University of Glasgow, Glasgow, U.K.). Activity assays were carried out in 100 mM sodium acetate; pH 5.5 containing 1 mM EDTA; 200 mM NaCl and 10 mM DTT (Alves, L. C., et. al., Mol. Biochem. Parasitol, 116, 1-9, 2001) using 0.25 nM enzyme. […] The rate of conversion of substrate to product was derived from the slope of the increase in fluorescence monitored continuously over time.
The apparent inhibition constant (Ki) for each compound was determined on the basis that inhibition was reversible and occurred by a pure-competitive mechanism. The Ki values were calculated, from the dependence of enzyme activity as a function of inhibitor concentration, by direct regression analysis (Prism v 3.02) using Equation 2 (Cornish-Bowden, A., 1995.). [formula]

A further assay addresses Wild-type cruzipain (Trypanosoma cruzi, UniProt P25779). Description: Trypanosoma cruzi cruzipain peptidase activity assay (Ki). Format: biochemical. Conditions: read-out: Ki, inhibitors of cruzain and cruzipains. In outline: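 Native cruzipain from T. cruzi Dm28 epimastigotes, 2.5 nM, in 100 mM sodium phosphate pH 6.75 with 1 mM EDTA and 10 mM L-cysteine, 25 °C, DMSO <1%. Rates taken from continuous fluorogenic substrate read; Ki by regression assuming reversible pure-competitive inhibition.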

Chain of Wild-type cruzipain (P25779 whole entry): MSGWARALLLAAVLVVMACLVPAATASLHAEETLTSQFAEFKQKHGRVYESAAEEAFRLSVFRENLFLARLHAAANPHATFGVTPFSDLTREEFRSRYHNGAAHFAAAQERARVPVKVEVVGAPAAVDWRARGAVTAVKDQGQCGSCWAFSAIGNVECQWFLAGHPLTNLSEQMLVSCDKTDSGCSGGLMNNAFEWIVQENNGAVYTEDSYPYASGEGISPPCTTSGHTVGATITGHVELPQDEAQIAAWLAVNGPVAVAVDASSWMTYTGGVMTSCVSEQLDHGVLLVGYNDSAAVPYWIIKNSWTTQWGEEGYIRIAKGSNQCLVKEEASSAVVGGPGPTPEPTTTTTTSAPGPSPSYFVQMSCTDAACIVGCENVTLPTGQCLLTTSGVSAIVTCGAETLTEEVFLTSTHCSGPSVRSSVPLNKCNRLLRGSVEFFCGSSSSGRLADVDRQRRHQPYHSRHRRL
T1 sequence (P36400 126-343, stated change not applied): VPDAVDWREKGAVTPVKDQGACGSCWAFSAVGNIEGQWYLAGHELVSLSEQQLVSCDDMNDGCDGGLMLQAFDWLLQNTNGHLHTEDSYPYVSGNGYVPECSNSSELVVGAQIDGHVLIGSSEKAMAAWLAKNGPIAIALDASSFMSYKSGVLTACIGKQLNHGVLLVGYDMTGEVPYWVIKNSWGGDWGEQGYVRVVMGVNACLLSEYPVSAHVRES

The term Ki denotes the equilibrium dissociation constant of an inhibitor or competing ligand from its target. On to `CC(C)C[C@H](NC(=O)c1ccc(N(C)C)cc1)C(=O)N1CC[C@@H]2[C@H]1C(=O)CN2C(=O)c1cccnc1` [Example 21, (3aR,6aS)-4-Dimethylamino-N-{(1S)-3-methyl-1-[6-oxo-4-(pyridine-3-carbonyl)-hexahydro-pyrrolo[3,2-b]pyrrole-1-carbonyl]-butyl}-benzamide], for which the Ki on CPB2.8ΔCTE and at Wild-type cruzipain was below 5 µM in each case.
As for `CC(C)C[C@H](NC(=O)c1ccc(C(C)(C)C)cc1)C(=O)N1CC[C@@H]2[C@H]1C(=O)CN2C(=O)c1cccc(Oc2ccccc2)c1` [Example 24, (3aR,6aS)-4-tert-Butyl-N-{(1S)-3-methyl-1-[6-oxo-4-(3-phenoxy-benzoyl)-hexahydro-pyrrolo[3,2-b]pyrrole-1-carbonyl]-butyl}-benzamide], the Ki on CPB2.8ΔCTE and at Wild-type cruzipain was below 5 µM in each case.
Take `CC(C)C[C@H](NC(=O)c1ccc(C(C)(C)C)cc1)C(=O)N1CC[C@@H]2[C@H]1C(=O)CN2C(=O)c1cccc(Br)c1` [Example 25, (3aR,6aS)-N-{(1S)-1-[4-(3-Bromo-benzoyl)-6-oxo-hexahydro-pyrrolo[3,2-b]pyrrole-1-carbonyl]-3-methyl-butyl}-4-tert-butyl-benzamide]: the Ki at CPB2.8ΔCTE and on Wild-type cruzipain was below 5 µM each time.
Regarding `CC(C)C[C@H](NC(=O)c1ccc(C(C)(C)C)cc1)C(=O)N1CC[C@@H]2[C@H]1C(=O)CN2C(=O)c1ccc(-n2cncn2)cc1` [Example 26, (3aR,6aS)-4-tert-Butyl-N-{(1S)-3-methyl-1-[6-oxo-4-(4-[1,2,4]triazol-1-yl-benzoyl)-hexahydro-pyrrolo[3,2-b]pyrrole-1-carbonyl]-butyl}-benzamide], the Ki at CPB2.8ΔCTE and on Wild-type cruzipain was below 5 µM in each case.
Take `CC(C)C[C@H](NC(=O)c1ccc(C(C)(C)C)cc1)C(=O)N1CC[C@@H]2[C@H]1C(=O)CN2C(=O)C1COc2ccccc2O1` (stereo partly drawn) [Example 29, (3aR,6aS)-4-tert-Butyl-N-{(1S)-1-[4-(2,3-dihydrobenzo[1,4]dioxine-2-carbonyl)-6-oxo-hexahydro-pyrrolo[3,2-b]pyrrole-1-carbonyl]-3-methyl-butyl}-benzamide]: the Ki at CPB2.8ΔCTE and on Wild-type cruzipain was below 5 µM in each case.
In the case of `CC(C)C[C@H](NC(=O)c1ccc(C(C)(C)C)cc1)C(=O)N1CC[C@@H]2[C@H]1C(=O)CN2C(=O)c1ccc2ncsc2c1` [Example 32, (3aR,6aS)-N-{(1S)-1-[4-(Benzothiazole-6-carbonyl)-6-oxo-hexahydro-pyrrolo[3,2-b]pyrrole-1-carbonyl]-3-methyl-butyl}-4-tert-butyl-benzamide], the inhibition constant (Ki) on CPB2.8ΔCTE and at Wild-type cruzipain was below 5 µM each time.
For the molecule `CC(C)C[C@H](NC(=O)c1ccc(N(C)C)cc1)C(=O)N1CC[C@@H]2[C@H]1C(=O)CN2C(=O)c1ccccc1S(C)(=O)=O` [Example 42, (3aR,6aS)-4-Dimethylamino-N-{(1S)-1-[4-(2-methanesulfonyl-benzoyl)-6-oxo-hexahydro-pyrrolo[3,2-b]pyrrole-1-carbonyl]-3-methyl-butyl}-benzamide], the Ki at CPB2.8ΔCTE and at Wild-type cruzipain was below 5 µM throughout.
Consider `CC(C)C[C@H](NC(=O)c1ccc(-c2ccccc2)s1)C(=O)N1CC[C@@H]2[C@H]1C(=O)CN2C(=O)c1ccccc1` [Example 44, (3aR,6aS)-5-Phenyl-thiophene-2-carboxylic acid [(1S)-1-(4-benzoyl-6-oxo-hexahydro-pyrrolo[3,2-b]pyrrole-1-carbonyl)-3-methyl-butyl]-amide], for which the inhibition constant Ki on CPB2.8ΔCTE and on Wild-type cruzipain was below 5 µM each time.
Turning to `CC(C)C[C@H](NC(=O)c1ccc(N(C)C)cc1)C(=O)N1CC[C@@H]2[C@H]1C(=O)CN2C(=O)c1ccc([N+](=O)[O-])cc1` [Example 47, (3aR,6aS)-4-Dimethylamino-N-{(1S)-3-methyl-1-[4-(4-nitro-benzoyl)-6-oxo-hexahydro-pyrrolo[3,2-b]pyrrole-1-carbonyl]-butyl}-benzamide], the Ki at CPB2.8ΔCTE and at Wild-type cruzipain was below 5 µM each time.
For `CC(C)C[C@H](NC(=O)c1ccc(N(C)C)cc1)C(=O)N1CC[C@@H]2[C@H]1C(=O)CN2C(=O)c1ccc(N)cc1` [Example 50, (3aR,6aS)-N-{(1S)-1-[4-(4-Amino-benzoyl)-6-oxo-hexahydro-pyrrolo[3,2-b]pyrrole-1-carbonyl]-3-methyl-butyl}-4-dimethylamino-benzamide], the inhibition constant (Ki) at CPB2.8ΔCTE and on Wild-type cruzipain was below 5 µM throughout.
As for `CC(C)C[C@H](NC(=O)c1ccc(N(C)C)cc1)C(=O)N1CC[C@@H]2[C@H]1C(=O)CN2C(=O)c1ccc(Oc2ccccc2)cc1` [Example 56, (3aR,6aS)-4-Dimethylamino-N-{(1S)-3-methyl-1-[6-oxo-4-(4-phenoxy-benzoyl)-hexahydro-pyrrolo[3,2-b]pyrrole-1-carbonyl]-butyl}-benzamide], the Ki at CPB2.8ΔCTE and on Wild-type cruzipain was below 5 µM throughout.
As for `CC(C)C[C@H](NC(=O)c1ccc(N(C)C)cc1)C(=O)N1CC[C@@H]2[C@H]1C(=O)CN2C(=O)c1ccccc1F` [Example 62, (3aR,6aS)-4-Dimethylamino-N-{(1S)-1-[4-(2-fluoro-benzoyl)-6-oxo-hexahydro-pyrrolo[3,2-b]pyrrole-1-carbonyl]-3-methyl-butyl}-benzamide], the inhibitory constant (Ki) on CPB2.8ΔCTE and at Wild-type cruzipain was below 5 µM in each case.
Turning to `COc1ccccc1C(=O)N1CC(=O)[C@@H]2[C@H]1CCN2C(=O)[C@H](CC(C)C)NC(=O)c1ccc(N(C)C)cc1` [Example 64, (3aR,6aS)-4-Dimethylamino-N-{(1S)-1-[4-(2-methoxy-benzoyl)-6-oxo-hexahydro-pyrrolo[3,2-b]pyrrole-1-carbonyl]-3-methyl-butyl}-benzamide], the Ki on CPB2.8ΔCTE and at Wild-type cruzipain was below 5 µM throughout.
On to `COc1ccc(C(=O)N2CC(=O)[C@@H]3[C@H]2CCN3C(=O)[C@H](CC(C)C)NC(=O)c2ccc(N(C)C)cc2)cc1` [Example 66, (3aR,6aS)-4-Dimethylamino-N-{(1S)-1-[4-(4-methoxy-benzoyl)-6-oxo-hexahydro-pyrrolo[3,2-b]pyrrole-1-carbonyl]-3-methyl-butyl}-benzamide], for which the Ki at CPB2.8ΔCTE and on Wild-type cruzipain was below 5 µM in each case.
In the case of `CC(C)C[C@H](NC(=O)c1ccc(N(C)C)cc1)C(=O)N1CC[C@@H]2[C@H]1C(=O)CN2C(=O)c1ccc(C(F)(F)F)cc1` [Example 69, (3aR,6aS)-4-Dimethylamino-N-{(1S)-3-methyl-1-[6-oxo-4-(4 trifluoromethyl-benzoyl)-hexahydro-pyrrolo[3,2-b]pyrrole-1-carbonyl]-butyl}-benzamide], the Ki at CPB2.8ΔCTE and on Wild-type cruzipain was below 5 µM in each case.
Turning to `CC(C)C[C@H](NC(=O)c1ccc(N(C)C)cc1)C(=O)N1CC[C@@H]2[C@H]1C(=O)CN2C(=O)c1cccc(OC(F)(F)F)c1` [Example 70, (3aR,6aS)-4-Dimethylamino-N-{(1S)-3-methyl-1-[6-oxo-4-(3-trifluoromethoxy-benzoyl)-hexahydro-pyrrolo[3,2-b]pyrrole-1-carbonyl]-butyl}-benzamide], the inhibitory constant (Ki) on CPB2.8ΔCTE and at Wild-type cruzipain was below 5 µM in each case.
